In ChEMBL document CHEMBL1145073, “DNA binding ligands targeting drug-resistant bacteria: structure, activity, and pharmacology” (J Med Chem, 2003):
Values after ≈ are worked out from the molar mass of the structure shown.

Assays:
Type in all cases: functional
[1] = In vitro antimicrobial activity against penicillin-intermediate Streptococcus pneumoniae 49619
Enterococcus faecalis = test: In vitro antimicrobial activity against vancomycin-susceptible Enterococcus faecalis 29212
Staphylococcus aureus = test: In vitro antimicrobial activity against methicillin resistant Staphylococcus aureus 27660

| MIC [1] [µg/mL] | MIC (Enterococcus faecalis) [µg/mL] | SMILES | MIC (Staphylococcus aureus) [µg/mL] |
| --- | --- | --- | --- |
| 0.5 (≈ 0.688 µM) | 8 (≈ 11 µM) | Cn1cc(NC(=O)c2cc(NC(=O)c3cc(NC(=O)c4sc5cc(F)c(F)cc5c4Cl)cn3C)cn2C)cc1C(=O)NCCN1CCOCC1 |  |
| 2 (≈ 3.3 µM) | 16 (≈ 26.4 µM) | Cn1cc(NC(=O)c2cc(NC(=O)c3cc(NC(=O)c4cccs4)cn3C)cn2C)cc1C(=O)NCCN1CCOCC1 |  |
| 0.062 (≈ 0.093 µM) | 4 (≈ 6 µM) | Cn1cc(NC(=O)c2cc(NC(=O)c3cc(NC(=O)c4ccc(OC(F)F)cc4)cn3C)cn2C)cc1C(=O)NCCN1CCOCC1 |  |
| 2 (≈ 3.1 µM) | 16 (≈ 24.8 µM) | Cn1cc(NC(=O)c2cc(NC(=O)c3cc(NC(=O)c4ccc5c(c4)OCO5)cn3C)cn2C)cc1C(=O)NCCN1CCOCC1 |  |
| 2 (≈ 2.92 µM) | > 32 | Cn1cc(NC(=O)c2cc(NC(=O)c3cc(NC(=O)c4csc(-c5cccnc5)n4)cn3C)cn2C)cc1C(=O)NCCN1CCOCC1 |  |
| 16 (≈ 24.6 µM) | > 32 | Cn1cc(NC(=O)c2cc(NC(=O)c3cc(NC(=O)c4cnc5ccccc5c4)cn3C)cn2C)cc1C(=O)NCCN1CCOCC1 |  |
| 8 (≈ 12.2 µM) | 32 (≈ 48.9 µM) | Cn1cc(NC(=O)c2cc(NC(=O)c3cc(NC(=O)c4cc5ccccc5n4C)cn3C)cn2C)cc1C(=O)NCCN1CCOCC1 |  |
| 0.5 (≈ 0.779 µM) | 8 (≈ 12.5 µM) | Cn1cc(NC(=O)c2cc(NC(=O)c3cc(NC(=O)c4cn5cccnc5n4)cn3C)cn2C)cc1C(=O)NCCN1CCOCC1 |  |
| 4 (≈ 6.65 µM) | > 32 | Cn1cc(NC(=O)c2cc(NC(=O)c3cc(NC(=O)c4cccnc4)cn3C)cn2C)cc1C(=O)NCCN1CCOCC1 |  |
| 32 (≈ 53 µM) | > 32 | Cn1cc(NC(=O)c2cc(NC(=O)c3cc(NC(=O)c4cccn4C)cn3C)cn2C)cc1C(=O)NCCN1CCOCC1 |  |
| 1 (≈ 1.53 µM) | 32 (≈ 49.1 µM) | Cn1cc(NC(=O)c2cc(NC(=O)c3cc(NC(=O)c4ccc5ccccc5n4)cn3C)cn2C)cc1C(=O)NCCN1CCOCC1 |  |
| 0.125 (≈ 0.171 µM) | 16 (≈ 21.9 µM) | Cn1cc(NC(=O)c2cc(NC(=O)c3cc(NC(=O)c4sc5cc(Cl)sc5c4Cl)cn3C)cn2C)cc1C(=O)NCCN1CCOCC1 |  |
| 4 (≈ 5.27 µM) | 8 (≈ 10.5 µM) | Cn1cc(NC(=O)c2cc(NC(=O)c3cc(NC(=O)c4sc5cc(C(F)(F)F)ccc5c4Cl)cn3C)cn2C)cc1C(=O)NCCN1CCOCC1 |  |
| 0.031 (≈ 0.0484 µM) | 2 (≈ 3.12 µM) | Cn1cc(NC(=O)c2cc(NC(=O)c3cc(NC(=O)c4cn5ccccc5n4)cn3C)cn2C)cc1C(=O)NCCN1CCOCC1 |  |
| > 32 | > 32 | Cn1cc(NC(=O)c2cc(NC(=O)c3cc(NC(=O)c4ccccn4)cn3C)cn2C)cc1C(=O)NCCN1CCOCC1 |  |
| 2 (≈ 3.06 µM) | > 32 | Cn1cc(NC(=O)c2cc(NC(=O)c3cc(NC(=O)c4ccc5cccnc5n4)cn3C)cn2C)cc1C(=O)NCCN1CCOCC1 |  |
| 16 (≈ 26.6 µM) | 32 (≈ 53.3 µM) | Cn1cc(NC(=O)c2cc(NC(=O)c3cc(NC(=O)c4ccccc4)cn3C)cn2C)cc1C(=O)NCCN1CCOCC1 |  |
| 0.125 (≈ 0.19 µM) | 1 (≈ 1.52 µM) | Cn1cc(NC(=O)c2cc(NC(=O)c3cc(NC(=O)c4nsc5ccccc45)cn3C)cn2C)cc1C(=O)NCCN1CCOCC1 |  |
| > 32 | > 32 | Cn1cc(NC(=O)c2cc(NC(=O)c3cc(NC(=O)c4cnc5ccccc5n4)cn3C)cn2C)cc1C(=O)NCCN1CCOCC1 |  |
| > 32 | > 32 | Cc1nc2ccncc2cc1C(=O)Nc1cc(C(=O)Nc2cc(C(=O)Nc3cc(C(=O)NCCN4CCOCC4)n(C)c3)n(C)c2)n(C)c1 |  |
| 0.25 (≈ 0.345 µM) | 32 (≈ 44.1 µM) | Cn1cc(NC(=O)c2cc(NC(=O)c3cc(NC(=O)c4sc5cc(Cl)ccc5c4Cl)cn3C)cn2C)cc1C(=O)NCCN1CCOCC1 |  |
| 0.25 (≈ 0.383 µM) | 4 (≈ 6.13 µM) | Cn1cc(NC(=O)c2cc(NC(=O)c3cc(NC(=O)c4ccc5cnccc5n4)cn3C)cn2C)cc1C(=O)NCCN1CCOCC1 |  |
| 8 (≈ 13.5 µM) | > 32 | Cn1cc(NC(=O)c2cc(NC(=O)c3cc(NC(=O)c4ccoc4)cn3C)cn2C)cc1C(=O)NCCN1CCOCC1 |  |
| 1 (≈ 1.52 µM) | 32 (≈ 48.7 µM) | Cn1cc(NC(=O)c2cc(NC(=O)c3cc(NC(=O)c4cc5ccccc5s4)cn3C)cn2C)cc1C(=O)NCCN1CCOCC1 |  |
| 2 (≈ 2.89 µM) | > 32 | Cn1cc(NC(=O)c2cc(NC(=O)c3cc(NC(=O)c4cc5cccc(Cl)c5s4)cn3C)cn2C)cc1C(=O)NCCN1CCOCC1 |  |
| 1 (≈ 1.46 µM) | > 32 | Cn1cc(NC(=O)c2cc(NC(=O)c3cc(NC(=O)c4ccc(OC(F)(F)F)cc4)cn3C)cn2C)cc1C(=O)NCCN1CCOCC1 |  |
| 0.5 (≈ 0.752 µM) | 8 (≈ 12 µM) | COc1cc(Cl)ccc1C(=O)Nc1cc(C(=O)Nc2cc(C(=O)Nc3cc(C(=O)NCCN4CCOCC4)n(C)c3)n(C)c2)n(C)c1 |  |
| 0.5 (≈ 0.748 µM) | 16 (≈ 23.9 µM) | Cn1cc(NC(=O)c2cc(NC(=O)c3cc(NC(=O)c4cc5ccccc5oc4=O)cn3C)cn2C)cc1C(=O)NCCN1CCOCC1 |  |
| 2 (≈ 2.79 µM) | > 32 | Cn1cc(NC(=O)c2cc(NC(=O)c3cc(NC(=O)c4sc(-c5ccccc5)cc4Cl)cn3C)cn2C)cc1C(=O)NCCN1CCOCC1 |  |
| 0.125 (≈ 0.198 µM) | > 32 | COc1ccc(C(=O)Nc2cc(C(=O)Nc3cc(C(=O)Nc4cc(C(=O)NCCN5CCOCC5)n(C)c4)n(C)c3)n(C)c2)cc1 |  |

Continued, compound first:

| SMILES | MIC [1] [µg/mL] | MIC (Enterococcus faecalis) [µg/mL] | MIC (Staphylococcus aureus) [µg/mL] |
| --- | --- | --- | --- |
| Cn1cc(NC(=O)c2cc(NC(=O)c3cc(-c4ccc5ccccc5c4)cn3C)cn2C)cc1C(=O)NCCN1CCOCC1 | 4 (≈ 6.58 µM) | 4 (≈ 6.58 µM) | 8 (≈ 13.2 µM) |
| Cn1cc(NC(=O)c2cc(NC(=O)c3cc(NC(=O)c4sccc4Cl)cn3C)cn2C)cc1C(=O)NCCN1CCC(O)CC1 | 2 (≈ 3.05 µM) | 4 (≈ 6.11 µM) | 4 (≈ 6.11 µM) |
| Cn1cc(NC(=O)c2cc(NC(=O)c3cc(-c4cnc(O)c(Cl)c4)cn3C)cn2C)cc1C(=O)NCCN1CCOCC1 | 0.5 (≈ 0.821 µM) | > 32 | 8 (≈ 13.1 µM) |
| CN1CCN(CCNC(=O)c2cc(NC(=O)c3cc(NC(=O)c4cc(NC(=O)c5sccc5Cl)cn4C)cn3C)cn2C)CC1 | 2 (≈ 3.06 µM) | 32 (≈ 48.9 µM) | 4 (≈ 6.11 µM) |
| CC(C)S(=O)(=O)c1csc(-c2cc(C(=O)Nc3cc(C(=O)Nc4cc(C(=O)NCCN5CCOCC5)n(C)c4)n(C)c3)n(C)c2)c1Cl | 1 (≈ 1.42 µM) | 4 (≈ 5.68 µM) | 4 (≈ 5.68 µM) |
| Cn1cc(NC(=O)c2cc(NC(=O)c3cc(-c4sccc4O)cn3C)cn2C)cc1C(=O)NCCN1CCOCC1 | > 32 | > 32 | > 32 |
| Cc1ccsc1-c1cc(C(=O)Nc2cc(C(=O)Nc3cc(C(=O)NCCN4CCOCC4)n(C)c3)n(C)c2)n(C)c1 | 4 (≈ 6.92 µM) | 16 (≈ 27.7 µM) | 16 (≈ 27.7 µM) |
| Cn1cc(NC(=O)c2cc(NC(=O)c3cc(NC(=O)c4cc5ccccc5cn4)cn3C)cn2C)cc1C(=O)NCCN1CCNCC1 | > 32 | > 32 | 16 (≈ 24.6 µM) |
| CSc1ccsc1-c1cc(C(=O)Nc2cc(C(=O)Nc3cc(C(=O)NCCN4CCOCC4)n(C)c3)n(C)c2)n(C)c1 | 0.125 (≈ 0.205 µM) | 8 (≈ 13.1 µM) | 4 (≈ 6.56 µM) |
| Cn1cc(NC(=O)c2cc(NC(=O)c3cc(NC(=O)c4cc5ccccc5cn4)cn3C)cn2C)cc1C(=O)NCCCN1CCOCC1 | 2 (≈ 3 µM) | 2 (≈ 3 µM) | 2 (≈ 3 µM) |
| Cn1cc(NC(=O)c2cc(NC(=O)c3cc(-c4ccc(F)cc4)cn3C)cn2C)cc1C(=O)NCCN1CCOCC1 | 2 (≈ 3.47 µM) | 8 (≈ 13.9 µM) | 16 (≈ 27.8 µM) |
| Cn1cc(NC(=O)c2cc(NC(=O)c3cc(-c4ccc5[nH]cnc5c4)cn3C)cn2C)cc1C(=O)NCCN1CCOCC1 | > 8 | > 32 | > 32 |
| Cn1cc(NC(=O)c2cc(NC(=O)c3cc(-c4cc(Cl)c(Cl)s4)cn3C)cn2C)cc1C(=O)NCCN1CCOCC1 | 4 (≈ 6.32 µM) | 8 (≈ 12.6 µM) | 8 (≈ 12.6 µM) |
| Cn1cc(NC(=O)c2cc(NC(=O)c3cc(-c4cc5ccccc5[nH]4)cn3C)cn2C)cc1C(=O)NCCN1CCOCC1 | 2 (≈ 3.35 µM) | 8 (≈ 13.4 µM) | 8 (≈ 13.4 µM) |
| Cc1cccnc1-c1cc(C(=O)Nc2cc(C(=O)Nc3cc(C(=O)NCCN4CCOCC4)n(C)c3)n(C)c2)n(C)c1 | 1 (≈ 1.75 µM) | 8 (≈ 14 µM) | 18 (≈ 31.4 µM) |
| Cn1cc(NC(=O)c2cc(NC(=O)c3cc(-c4ccc(Cl)s4)cn3C)cn2C)cc1C(=O)NCCN1CCOCC1 | 2 (≈ 3.34 µM) | 2 (≈ 3.34 µM) | 4 (≈ 6.69 µM) |
| Cn1cc(NC(=O)c2cc(NC(=O)c3cc(-c4cccc(F)c4)cn3C)cn2C)cc1C(=O)NCCN1CCOCC1 | 16 (≈ 27.8 µM) | 32 (≈ 55.6 µM) | 32 (≈ 55.6 µM) |
| Cc1nnsc1-c1cc(C(=O)Nc2cc(C(=O)Nc3cc(C(=O)NCCN4CCOCC4)n(C)c3)n(C)c2)n(C)c1 | 2 (≈ 3.45 µM) | 8 (≈ 13.8 µM) | 16 (≈ 27.6 µM) |
| Cn1cc(NC(=O)c2cc(NC(=O)c3cc(-c4csnn4)cn3C)cn2C)cc1C(=O)NCCN1CCOCC1 | 1 (≈ 1.77 µM) | 4 (≈ 7.07 µM) | 32 (≈ 56.6 µM) |
| Cn1cc(NC(=O)c2cc(NC(=O)c3cc(-c4ccco4)cn3C)cn2C)cc1C(=O)NCCN1CCOCC1 | 1 (≈ 1.83 µM) | 32 (≈ 58.4 µM) | 32 (≈ 58.4 µM) |
| Cn1cc(NC(=O)c2cc(NC(=O)c3cc(-c4ccc5nsnc5c4)cn3C)cn2C)cc1C(=O)NCCN1CCOCC1 | 0.5 (≈ 0.812 µM) | 1 (≈ 1.62 µM) | 8 (≈ 13 µM) |
| Cn1cc(NC(=O)c2cc(NC(=O)c3cc(-c4cccc(Cl)c4)cn3C)cn2C)cc1C(=O)NCCN1CCOCC1 | 8 (≈ 13.5 µM) | 8 (≈ 13.5 µM) | 8 (≈ 13.5 µM) |
| CN(C)CC(C)(C)CNC(=O)c1cc(NC(=O)c2cc(NC(=O)c3cc(NC(=O)c4cc5ccccc5cn4)cn3C)cn2C)cn1C | 1 (≈ 1.53 µM) | 1 (≈ 1.53 µM) | 1 (≈ 1.53 µM) |
| Cn1cc(NC(=O)c2cc(NC(=O)c3cc(NC(=O)c4cc5ccccc5cn4)cn3C)cn2C)cc1C(=O)NCCN1CCCC1 | 0.062 (≈ 0.0975 µM) | 2 (≈ 3.15 µM) | 0.5 (≈ 0.786 µM) |
| CN(C)CCCNC(=O)c1cc(NC(=O)c2cc(NC(=O)c3cc(NC(=O)c4cc5ccccc5cn4)cn3C)cn2C)cn1C | 1 (≈ 1.6 µM) | 4 (≈ 6.41 µM) | 4 (≈ 6.41 µM) |
| Cc1c(-c2cc(C(=O)Nc3cc(C(=O)Nc4cc(C(=O)NCCN5CCOCC5)n(C)c4)n(C)c3)n(C)c2)oc2ccccc12 | 2 (≈ 3.27 µM) | 16 (≈ 26.2 µM) | 8 (≈ 13.1 µM) |
| COc1ccsc1-c1cc(C(=O)Nc2cc(C(=O)Nc3cc(C(=O)NCCN4CCOCC4)n(C)c3)n(C)c2)n(C)c1 | > 32 | > 32 | 32 (≈ 53.9 µM) |
| Cn1cc(NC(=O)c2cc(NC(=O)c3cc(NC(=O)c4cc5ccccc5cn4)cn3C)cn2C)cc1C(=O)NCCN1CCC(F)CC1 | 0.031 (≈ 0.0464 µM) | 0.125 (≈ 0.188 µM) | 0.25 (≈ 0.374 µM) |
